One data set concerns the target CYP1A2 (Homo sapiens (Human), UniProt P05177). The data set is described as follows: CYP inhibition in human liver microsomes, CYP1A2. Type of data set: in vitro ADME. The note with it: for inhibition at 10 min, 10 µM: both sexes, human, pooled human liver microsomes, pH 7.4, probe phenacetin (10 μM), HLM, phenacetin substrate, read-out: CYP 1A2 % Inhibition at 10 μM. On the procedure:
(§1) HLM Incubations. Pooled HLM from adult male and female donors (Corning 452117) were used. Microsomal incubations were carried out in multi-well plates. Liver microsomal incubation aliquots contained 1) PBS (100 mM, pH 7.4), MgCl2 (3.3 mM), and NADPH (1 mM); 2) liver microsomal protein (0.2 mg/mL); 3) the reference CYP substrates: phenacetin for CYP1A2 (10 μM), diclofenac for CYP2C9 (5 μM), (S)-mephenytoin for CYP2C19 (30 μM), dextromethorphan for CYP2D6 (5 μM), and midazolam for CYP3A4 (2 μM); and 4) test compounds (10 μM), control inhibitors (3 μM α-naphthoflavone for CYP1A2, 3 μM sulfaphenazole for CYP2C9, 1 μM (+)-N-3-benzylnirvanol for 2C19, 3 μM quinidine for CYP2D6, or 3 μM ketoconazole for CYP3A4), or solvent (for uninhibited condition). Incubations were carried out at 37° C. with constant shaking for 10 minutes.
(§2) Sample Analysis. […] Percent inhibition by test compounds or control inhibitors was calculated by comparing the metabolite formation in the presence of the inhibitor compared to the metabolite formation in the absence of the inhibitor.

For a further data set, the target named is CYP2C19 (Homo sapiens (Human), UniProt P33261). The experiment in a line: CYP inhibition in human liver microsomes, CYP2C19. It counts as in vitro ADME. The note with it: for inhibition at 10 min, 10 µM: both sexes, human, pooled human liver microsomes, pH 7.4, probe (S)-mephenytoin (30 μM), HLM, (S)-mephenytoin substrate, read-out: CYP 2C19 % Inhibition at 10 μM. Here is the method: as §1, §2
Background: Liver microsomes are a subcellular fraction often used to study metabolism.

The target of a further data set is CYP3A4 (Homo sapiens (Human), UniProt P08684). The experiment in a line: CYP inhibition in human liver microsomes, CYP3A4. It counts as in vitro ADME. The conditions noted are these: for inhibition at 10 min, 10 µM: both sexes, human, pooled human liver microsomes, pH 7.4, probe midazolam (2 μM), HLM, midazolam substrate, read-out: CYP 3A4 % Inhibition at 10 μM.
Another data set has as its system C57BL/6 mice. The experiment in a line: Marble burying test (MBT) in mice. Type of data set: in vivo. The note with it: SC, 30 minutes prior, 30-minute period, vs. vehicle. Here is the method:
Animals. Adult male C57BL/6 mice, aged 8-10 weeks (body weight 20-25 g), were used in these experiments. Animals were housed under controlled temperatures and 12-hour light/dark cycles (lights on between 07:00-19:00 h), with ad libitum food and water. All efforts were made to minimize suffering.
Drugs and Drug Administration. Compound 4 was prepared as described above. Desipramine HCl was commercially obtained. The test compound, vehicle, and the positive control desipramine were administered subcutaneously (SC), with doses calculated based on the freebase. Normal saline was used as the vehicle. All compounds were administered at a volume of 10 ml/kg. All treatments were administered 30 minutes prior to the start of behavioral testing. Group size was n=9-10 per treatment.
Marble Burying Test (MBT). […] Mice were handled for about 2 min daily for the 3 days prior to the beginning of the experimental procedure. Twenty glass marbles (16 mm diameter) were placed at equal distances in a 5×4 pattern on a 5-cm layer of corn-cob bedding, with marbles at least 2 cm from the borders of the cage. The total number of marbles buried were counted in three 10-minute time bins (total 30 minutes). A marble was considered buried when it was >⅔ covered by bedding material.
Statistical Analysis. The data points shown are the mean ±standard error of the mean (SEM). Analysis was performed using GraphPad Prism 6. […]

Data set [1] is described as follows: Pharmacokinetics in rats, brain. It counts as in vivo, Sprague Dawley rats. The note with it: rat brain, SC; for Cmax / Tmax / half-life: male, Sprague Dawley. Here is the method:
Animals. Male Sprague Dawley rats, aged 8-12 weeks, were used in these studies. Four rats were housed in each cage. Temperature and humidity were maintained at 22±3° C. and 30-70%, respectively, and illumination was controlled to give a 12 h light and 12 h dark cycle. Temperature and humidity were recorded by an auto-controlled data logger system. All animals were provided laboratory rodent diet and were fasted for 4 h pre-dose and 2 h post-dose. Reverse osmosis water treated with ultraviolet light was provided ad libitum. Animals were randomly assigned to treatment groups.
Drugs. Compounds 4 and 5 were prepared as described above. Compound 6 was commercially obtained. Test compounds were used as the hydrogen fumarate (6) or hydrochloride (4 and 5) salts and were dissolved in a vehicle consisting of normal saline. They were then administered subcutaneously (SC) at a dose of 1 or 10 mg/kg (calculated based on the free base) and at a volume of 5 mL/kg body weight.
Sample Collection and Bioanalysis. Blood samples (approximately 120 μL) were collected under light isoflurane anesthesia (Surgivet®) from the retro orbital plexus at 0.08, 0.25, 0.5, 1, 2, 4, 8, and 24 h (4 animals per time point). Immediately after blood collection, plasma was harvested by centrifugation at 4,000 rpm for 10 min at 4° C. and samples were stored at −70±10° C. until bioanalysis. Following blood collection, animals were immediately sacrificed, the abdominal vena-cava was cut open, and the whole body was perfused from the heart using 10 mL of normal saline, and brain samples were collected from all animals. After isolation, brain samples were rinsed three times in ice-cold normal saline (for 5-10 seconds/rinse using ˜5-10 mL normal saline in disposable petri dish for each rinse) and dried on blotting paper. Brain samples were homogenized using ice-cold phosphate-buffered saline (pH 7.4). Total homogenate volume was three times the tissue weight. All homogenates were stored at −70±10° C. until bioanalysis. For bioanalysis, 25 μL aliquots of plasma/brain study samples or spiked plasma/brain calibration standards were added to individual pre-labeled micro-centrifuge tubes followed by 100 μL of an internal standard solution (glipizide, 500 ng/ml in acetonitrile) except for blanks, where 100 μL of acetonitrile was added. Samples were vortexed for 5 minutes and then centrifuged for 10 minutes at 4,000 rpm at 4° C. Following centrifugation, 100 μL of each clear supernatant was transferred to a 96 well plate and analyzed with a fit-for-purpose LC-MS/MS method, with authentic samples of each analyte used for calibration and identification.
Data Analysis. Pharmacokinetic parameters were estimated using the non-compartmental analysis tool of Phoenix® WinNonlin software (Ver 8.0).

Counter-ions that a name gives are not always drawn.

Chain of CYP1A2 (P05177 whole entry, looked up): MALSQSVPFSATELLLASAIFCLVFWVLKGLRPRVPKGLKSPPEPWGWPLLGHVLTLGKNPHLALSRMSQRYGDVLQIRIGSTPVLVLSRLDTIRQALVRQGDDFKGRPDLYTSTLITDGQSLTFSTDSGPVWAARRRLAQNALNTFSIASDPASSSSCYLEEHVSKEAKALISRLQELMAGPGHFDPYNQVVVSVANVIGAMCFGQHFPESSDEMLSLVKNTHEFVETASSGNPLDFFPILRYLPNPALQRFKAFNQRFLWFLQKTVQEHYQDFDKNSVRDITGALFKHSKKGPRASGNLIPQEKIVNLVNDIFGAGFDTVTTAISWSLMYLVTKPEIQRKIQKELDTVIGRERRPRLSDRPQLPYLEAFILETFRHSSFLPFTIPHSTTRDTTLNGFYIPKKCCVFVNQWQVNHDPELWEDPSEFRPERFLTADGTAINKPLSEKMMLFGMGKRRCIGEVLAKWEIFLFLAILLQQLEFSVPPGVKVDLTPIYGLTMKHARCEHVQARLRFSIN
Chain of CYP3A4 (P08684 whole entry, looked up): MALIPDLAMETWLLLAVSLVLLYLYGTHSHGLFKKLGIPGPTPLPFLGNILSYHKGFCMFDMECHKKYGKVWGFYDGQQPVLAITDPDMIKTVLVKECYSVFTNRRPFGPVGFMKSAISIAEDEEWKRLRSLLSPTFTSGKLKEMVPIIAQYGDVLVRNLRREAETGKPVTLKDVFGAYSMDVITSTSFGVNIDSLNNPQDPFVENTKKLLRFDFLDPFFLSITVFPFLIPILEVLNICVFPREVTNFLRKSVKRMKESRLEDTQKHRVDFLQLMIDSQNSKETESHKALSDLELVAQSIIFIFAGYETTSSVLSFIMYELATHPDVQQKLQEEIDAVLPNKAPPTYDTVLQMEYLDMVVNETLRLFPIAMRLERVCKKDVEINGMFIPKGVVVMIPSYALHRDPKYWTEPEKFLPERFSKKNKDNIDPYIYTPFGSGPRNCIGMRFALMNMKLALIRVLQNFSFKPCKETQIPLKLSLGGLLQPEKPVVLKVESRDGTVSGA
Chain of CYP2C19 (P33261 whole entry, looked up): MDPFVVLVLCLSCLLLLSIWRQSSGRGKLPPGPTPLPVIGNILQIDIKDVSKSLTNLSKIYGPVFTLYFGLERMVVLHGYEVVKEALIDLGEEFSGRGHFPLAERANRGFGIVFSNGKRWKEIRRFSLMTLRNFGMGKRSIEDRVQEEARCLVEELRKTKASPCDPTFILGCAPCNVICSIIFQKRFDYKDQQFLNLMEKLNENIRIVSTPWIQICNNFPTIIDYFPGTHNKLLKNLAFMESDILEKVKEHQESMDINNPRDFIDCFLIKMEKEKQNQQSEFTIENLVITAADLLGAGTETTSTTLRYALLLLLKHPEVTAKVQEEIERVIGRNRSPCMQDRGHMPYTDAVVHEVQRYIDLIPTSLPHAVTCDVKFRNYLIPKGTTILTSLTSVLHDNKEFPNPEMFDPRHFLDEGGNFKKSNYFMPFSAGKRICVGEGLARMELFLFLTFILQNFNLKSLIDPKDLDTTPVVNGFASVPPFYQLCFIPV

For orientation: inhibition means the drop in the measured response relative to a control, in per cent. For the compound `CCCN(CC)CCc1c[nH]c2ccccc12` [Compound 1, ethylpropyltryptamine], the values for the inhibition at 10 min, 10 µM on CYP1A2, on CYP2C19 and on CYP3A4 were 37.1%, 2.3% and 2%, respectively.
As usually defined, the IC50 is the concentration that inhibits the measured activity by half. A high value points to weaker potency. Take `CCN(C)CCc1c[nH]c2ccccc12` [Compound 2, methylethyltryptamine]: the 50% inhibitory concentration (IC50) on CYP1A2, against CYP2C19 and on CYP3A4 was more than 50 µM throughout. In addition, the inhibition at 10 min, 10 µM on CYP1A2 was 0.5%; at CYP2C19, 0%; on CYP3A4, 0%.
As to `CCCN(CC)CCc1c[nH]c2ccc(F)cc12` [Compound 3, N-ethyl-N-(2-(5-fluoro-1H-indol-3-yl)ethyl) propan-1-amine hydrochloride], the figures for the half-inhibitory concentration (IC50) on CYP1A2, against CYP2C19 and against CYP3A4 were 8.4 µM, more than 50 µM and more than 50 µM, respectively.
In general, Cmax refers to the highest concentration seen after dosing. As a reminder, the Tmax is the time from dosing to the highest level. A word on the half-life: it is how long it takes for the measured level to halve. A higher half-life goes with slow loss. For `CCN(C)CCc1c[nH]c2ccc(F)cc12` [Compound 4, N-ethyl-2-(5-fluoro-1H-indol-3-yl)-N-methylethan-1-amine hydrochloride], the IC50 against CYP1A2 was more than 50 µM. The compound also displayed an IC50 against CYP2C19 of more than 50 µM. Moreover, at CYP3A4, the half-maximal inhibitory concentration (IC50) was more than 50 µM. In addition, the “number of marbles buried” value with C57BL/6 mice was “dose-dependent reduction”. In data set [1] (1 mg/kg), the highest level (Cmax) was 188 ng/g, the Tmax worked out at 15 min, the half-life is 23.4 min and the AUC0-last worked out at 197.70 ng·h/g. For the same compound, in data set [1] (10 mg/kg), the Cmax amounted to 2480 ng/g, the Tmax was determined as 60 min, the half-life is 31.2 min and the AUC0-last is recorded as 4,710.96 h*ng/g.
Consider `CN(C)CCc1c[nH]c2ccc(F)cc12` [Compound 5, 2-(5-fluoro-1H-indol-3-yl)-N,N-dimethylethan-1-amine hydrochloride], for which, in data set [1] (10 mg/kg), the peak level (Cmax) was 275 ng/g, the Tmax came out at 15 min, the half-life is 23.4 min and the AUC0-last came out at 93.99 ng·h/g.
Turning to `CCN(C)CCc1c[nH]c2cccc(O)c12` [Compound 6], on CYP1A2, the 50% inhibitory concentration (IC50) is more than 50 µM. The IC50 against CYP2C19 was more than 50 µM. This compound registered an IC50 against CYP3A4 of more than 50 µM. In addition, in data set [1] (10 mg/kg), the Cmax was determined as 6160 ng/g, the Tmax came to 120 min, the half-life is 125 min and the AUC0-last is 30,638.13 h*ng/g.

These data come from patent publication US20240317683A1, “METHODS OF TREATING MOOD DISORDERS” (priority 2020, published 2024).
